We go through five compounds from paper PMC3523391 (Leukemia, 2012).

One data set relates to MOLM-13-RES cells. In words: MTS cell viability assay, MOLM-13-RES. The class given is cell-based, human. To be noted: ratio of in vitro viability potency, MOLM-13-RES vs MOLM-13.
The conditions of data set [1]: single-agent phase I-II clinical trial in AML; cited from earlier work.
The next data set is described as follows: in vivo. Further details: species or system mice. To be noted: female, athymic CrTac:NCr-Fox1(nu), mouse, po, 160 mg/kg.
For data set [2] the following is noted: in mice; cited from earlier work.

`CC(C)(C)c1cc(NC(=O)Nc2ccc(-c3cn4c(n3)sc3cc(OCCN5CCOCC5)ccc34)cc2)no1` [AC220]: the “relative resistance of MOLM-13-RES compared with parental MOLM-13 cells” value in the data set on MOLM-13-RES cells is “approximately 23 fold”. As for `CCN(CCCOc1ccc2c(Nc3cc(CC(=O)Nc4cccc(F)c4)n[nH]3)ncnc2c1)CCOP(=O)(O)O` [AZD1152], in data set [1], the response rate is recorded as 25%.

In “in vivo”, `COc1cc2c(N3CCN(C(=O)Nc4ccc(OC(C)C)cc4)CC3)ncnc2cc1OCCCN1CCCCC1` [MLN518] registered a concentration at 1 h after the last dose of approximately 0.2 µM and a concentration at 6 h after the last dose of approximately 0.04 µM. For the same compound, in data set [2], the plasma protein binding was 80%. `COc1cc(Nc2ncc3c(n2)-c2ccc(Cl)cc2C(c2c(F)cccc2OC)=NC3)ccc1C(=O)O` [MLN8237]: in data set [1], the response rate is reported as 17%.

`CNC(=O)c1cc(Oc2ccc(NC(=O)Nc3ccc(Cl)c(C(F)(F)F)c3)cc2)ccn1` [Sorafenib]: the “relative resistance of MOLM-13-RES compared with parental MOLM-13 cells” value in the data set on MOLM-13-RES cells is “approximately 60 fold”.
